Assay results published in ChEMBL document CHEMBL1145404, “o-Naphthalenedicarboxaldehyde derivative of 7'-aminonaltrindole as a selective delta-opioid receptor affinity label” (J Med Chem, 2007).

Tests used:
[1] = target: Mu-type opioid receptor (Homo sapiens, UniProt P35372); assay: Displacement of [3H]diprenorphine from mu opioid receptor expressed in human HEK293 cells; assay type: cell-based
[2] = target: Delta-type opioid receptor (Homo sapiens, UniProt P41143); assay: Displacement of [3H]diprenorphine from delta opioid receptor expressed in human HEK293 cells; assay type: cell-based
Sequence of Delta-type opioid receptor (Homo sapiens, UniProt P41143) (P41143 whole entry): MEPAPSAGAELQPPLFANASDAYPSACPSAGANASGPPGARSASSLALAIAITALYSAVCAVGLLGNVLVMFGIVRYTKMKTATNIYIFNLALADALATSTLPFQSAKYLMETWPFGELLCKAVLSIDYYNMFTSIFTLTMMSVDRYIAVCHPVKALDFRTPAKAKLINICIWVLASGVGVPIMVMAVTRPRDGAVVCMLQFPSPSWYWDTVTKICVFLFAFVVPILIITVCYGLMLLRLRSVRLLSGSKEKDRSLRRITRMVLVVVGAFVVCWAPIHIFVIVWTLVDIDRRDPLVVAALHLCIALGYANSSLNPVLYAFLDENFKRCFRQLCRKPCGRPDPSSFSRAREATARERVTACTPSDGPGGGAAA

[3] = target: Kappa-type opioid receptor (Homo sapiens, UniProt P41145); assay: Displacement of [3H]diprenorphine from kappa opioid receptor expressed in human HEK293 cells; assay type: cell-based
Sequence of Kappa-type opioid receptor (P41145 whole entry): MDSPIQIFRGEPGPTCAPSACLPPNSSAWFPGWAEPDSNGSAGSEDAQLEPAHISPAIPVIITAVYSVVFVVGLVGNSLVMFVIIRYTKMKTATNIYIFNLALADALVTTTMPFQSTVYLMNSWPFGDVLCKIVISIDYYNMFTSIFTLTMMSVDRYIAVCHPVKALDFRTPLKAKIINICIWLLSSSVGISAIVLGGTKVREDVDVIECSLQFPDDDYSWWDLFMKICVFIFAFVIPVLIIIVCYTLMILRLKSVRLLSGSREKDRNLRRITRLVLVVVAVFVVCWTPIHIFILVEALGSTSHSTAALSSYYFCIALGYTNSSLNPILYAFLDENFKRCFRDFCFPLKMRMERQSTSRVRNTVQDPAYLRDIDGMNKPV

[4] = target: Delta-type opioid receptor (Mus musculus, UniProt P32300); assay: Agonist activity at delta opioid receptor in mouse vas deferens; assay type: functional, tissue-based
Sequence of Delta-type opioid receptor (Mus musculus, UniProt P32300) (P32300 whole entry): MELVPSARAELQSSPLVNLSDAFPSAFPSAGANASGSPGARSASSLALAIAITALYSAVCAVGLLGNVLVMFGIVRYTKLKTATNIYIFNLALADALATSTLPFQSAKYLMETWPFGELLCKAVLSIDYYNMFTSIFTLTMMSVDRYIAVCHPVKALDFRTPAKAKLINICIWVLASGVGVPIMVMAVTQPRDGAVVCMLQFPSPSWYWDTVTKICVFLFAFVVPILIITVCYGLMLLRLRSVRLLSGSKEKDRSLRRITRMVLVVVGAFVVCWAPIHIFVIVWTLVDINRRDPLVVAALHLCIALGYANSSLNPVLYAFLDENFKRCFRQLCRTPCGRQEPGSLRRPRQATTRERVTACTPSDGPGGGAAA

[5] = target: Mu-type opioid receptor (Cavia porcellus, UniProt P97266); assay: Agonist activity at mu opioid receptor in guinea pig ileum longitudinal muscle; assay type: functional, tissue-based
Sequence of Mu-type opioid receptor (Cavia porcellus, UniProt P97266) (P97266 whole entry): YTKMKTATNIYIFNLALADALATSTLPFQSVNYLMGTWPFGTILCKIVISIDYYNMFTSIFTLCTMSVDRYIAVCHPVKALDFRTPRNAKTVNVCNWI

[6] = target: Opioid receptors; mu & delta (Homo sapiens) (UniProt P41143+P35372); assay: Selectivity for human delta opioid receptor to human mu opioid receptor; assay type: protein assay
Sequence of Opioid receptors; mu & delta (Homo sapiens) (P35372 whole entry, looked up): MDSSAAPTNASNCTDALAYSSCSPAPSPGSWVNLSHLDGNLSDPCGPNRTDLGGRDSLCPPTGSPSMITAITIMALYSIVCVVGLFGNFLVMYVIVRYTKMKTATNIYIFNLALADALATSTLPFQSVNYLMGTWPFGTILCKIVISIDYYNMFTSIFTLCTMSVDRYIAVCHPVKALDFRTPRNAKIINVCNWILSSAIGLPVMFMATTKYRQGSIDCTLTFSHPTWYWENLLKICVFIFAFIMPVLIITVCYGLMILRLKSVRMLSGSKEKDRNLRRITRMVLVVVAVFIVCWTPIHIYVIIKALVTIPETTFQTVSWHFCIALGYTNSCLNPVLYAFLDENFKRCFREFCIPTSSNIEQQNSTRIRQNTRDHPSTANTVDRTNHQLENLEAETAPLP
Sequence of Opioid receptors; mu & delta (Homo sapiens) (P41143 whole entry, looked up): as the sequence (P41143 whole entry) above

[7] = target: Opioid receptors; delta & kappa (Homo sapiens) (UniProt P41145+P41143); assay: Selectivity for human delta opioid receptor to human kappa opioid receptor; assay type: protein assay
Sequence of Opioid receptors; delta & kappa (Homo sapiens) (P41143 whole entry, looked up): as the sequence (P41143 whole entry) above
Sequence of Opioid receptors; delta & kappa (Homo sapiens) (P41145 whole entry, looked up): as the sequence (P41145 whole entry) above

Sequence of Mu-type opioid receptor (Homo sapiens, UniProt P35372) (P35372 whole entry): as the sequence (P35372 whole entry, looked up) above

## O=Cc1cc2ccc(C(=O)Nc3cccc4c5c([nH]c34)[C@@H]3Oc4c(O)ccc6c4[C@@]34CCN(CC3CC3)[C@H](C6)[C@]4(O)C5)cc2cc1C=O
[1]
  Ki: 144 nM
[2]
  Ki: 2.25 nM
[3]
  Ki: 153 nM
[4]
  IC50: 0.46 nM
[5]
  IC50: 19.5 nM
[6]
  Ratio Ki: 64
[7]
  Ratio Ki: 68
